Experimental data as given in ChEMBL document CHEMBL5380834, “Design, Synthesis, and Biological Evaluation of Androgen Receptor (AR) Antagonist-Heat Shock Protein 90 (Hsp90) Inhibitor Conjugates for Targeted Therapy of Castration-Resistant Prostate Cancer” (J Med Chem, 2023).
Activity calls are given as the source filed them. No cut-off for these calls is given here.

Legend:
CWR22R [1] = assay: Cytotoxicity against human 22Rv1 cells assessed as inhibition of cell growth incubated for 5 days in presence of AR agonist, R1881 by WST-1 assay; format: functional, cell-based; details: 22Rv1, 120 h
LNCaP [2] = assay: Cytotoxicity against AR-positive human LNCaP cells assessed as inhibition of cell growth incubated for 5 days in presence of AR agonist, R1881 in charcoal stripped serum by WST-1 assay; format: functional, cell-based; details: 120 h
LNCaP [3] = assay: Induction of apoptosis in human LNCaP cells assessed as increase in caspase-3 level at 1 uM measured after 48 hrs by Western blot analysis; format: functional, cell-based
LNCaP [4] = assay: Induction of apoptosis in human LNCaP cells assessed as increase in PARP level at 1 uM measured after 48 hrs by Western blot analysis; format: functional, cell-based
CWR22R [5] = assay: Induction of apoptosis in human 22Rv1 cells assessed as increase in caspase-3 level at 1 uM measured after 48 hrs by Western blot analysis; format: functional, cell-based
CWR22R [6] = assay: Induction of apoptosis in human 22Rv1 cells assessed as increase in PARP level at 1 uM measured after 48 hrs by Western blot analysis; format: functional, cell-based
CWR22R [7] = assay: Antitumor activity against human 22Rv1 cells xenografted in BALB/c nude mouse assessed as reduction in tumor size at 5 mg/kg, ip administered once every 4th day for 3 weeks; format: functional, organism-based
[8] = Drug uptake in human 22Rv1 cells assessed as increase in fluorescence at 1 uM incubated for 1 hr by DAPI staining based confocal microscopy; format: ADME, cell-based; details: cwr22r
[9] = system: Androgen receptor (Homo sapiens), P10275 [UNDEFINED MUTATION]; assay: Induction of AR-V7 degradation in human 22Rv1 cells at 100 nM by Western blot analysis; format: cell-based; details: time <= 48.0 hrs, TDE = time-dependent effect
[10] = Drug uptake in human RWPE-1 cells assessed as increase in fluorescence at 1 uM incubated for 1 hr by DAPI staining based confocal microscopy; format: ADME, cell-based; details: rwpe-1, 1 h
[11] = Drug uptake in human HEK293T cells assessed as increase in fluorescence at 1 uM incubated for 1 hr by DAPI staining based confocal microscopy; format: ADME, cell-based; details: hek-293t
[12] = system: Androgen receptor (Homo sapiens), P10275 [UNDEFINED MUTATION]; assay: Induction of AR-V7 degradation in human 22Rv1 cells measured upto 24 hrs by Western blot analysis; format: cell-based; details: dose 1000.0 nM
CWR22R [13] = assay: Antitumor activity against human 22Rv1 cells xenografted in BALB/c nude mouse assessed as downregulation of AR-V7 level at 2.5 mg/kg, ip administered once every 4th day for 3 weeks; format: functional, organism-based
CWR22R [14] = assay: Antitumor activity against human 22Rv1 cells xenografted in BALB/c nude mouse assessed as downregulation of AR-FL level at 2.5 mg/kg, ip administered once every 4th day for 3 weeks; format: functional, organism-based
[15] = Drug uptake in human RWPE-1 cells assessed as drug internalization at 1 uM incubated for 1 hr by DAPI staining based confocal microscopy; format: ADME, cell-based; details: rwpe-1, 1 h
[16] = Drug uptake in HEK293T cells assessed as drug internalization at 1 uM incubated for 1 hr by DAPI staining based confocal microscopy; format: ADME, cell-based; details: human, hek-293t
[17] = Drug uptake in kidney of nude mouse xenografted with human 22Rv1 cells assessed as increase in fluorescence signal at 0.5 mg/kg, iv measured after 2 hrs by fluorescence imaging analysis; format: ADME, organism-based, CWR22R; details: in vivo
[18] = Drug uptake in liver of nude mouse xenografted with human 22Rv1 cells assessed as increase in fluorescence signal at 0.5 mg/kg, iv measured after 2 hrs by fluorescence imaging analysis; format: ADME, organism-based, CWR22R; details: in vivo
[19] = Drug uptake in tumor of nude mouse xenografted with human 22Rv1 cells assessed as increase in fluorescence signal at 0.5 mg/kg, iv measured after 2 hrs by fluorescence imaging analysis; format: ADME, organism-based, Neoplasm, CWR22R; details: in vivo
[20] = Drug uptake in Lung of nude mouse xenografted with human 22Rv1 cells assessed as increase in fluorescence signal at 0.5 mg/kg, iv measured after 2 hrs by fluorescence imaging analysis; format: ADME, organism-based, CWR22R; details: in vivo
[21] = Drug uptake in human 22Rv1 cells assessed as drug internalization at 1 uM incubated for 1 hr by DAPI staining based confocal microscopy; format: ADME, cell-based; details: cwr22r
CWR22R [22] = assay: Antitumor activity against human 22Rv1 cells xenografted in BALB/c nude mouse assessed as reduction in tumor growth at 5 mg/kg, ip administered once every 4th day for 3 weeks; format: functional, organism-based

Chain of Androgen receptor (Homo sapiens), P10275 [UNDEFINED MUTATION] (P10275 whole entry, looked up, stated change not applied): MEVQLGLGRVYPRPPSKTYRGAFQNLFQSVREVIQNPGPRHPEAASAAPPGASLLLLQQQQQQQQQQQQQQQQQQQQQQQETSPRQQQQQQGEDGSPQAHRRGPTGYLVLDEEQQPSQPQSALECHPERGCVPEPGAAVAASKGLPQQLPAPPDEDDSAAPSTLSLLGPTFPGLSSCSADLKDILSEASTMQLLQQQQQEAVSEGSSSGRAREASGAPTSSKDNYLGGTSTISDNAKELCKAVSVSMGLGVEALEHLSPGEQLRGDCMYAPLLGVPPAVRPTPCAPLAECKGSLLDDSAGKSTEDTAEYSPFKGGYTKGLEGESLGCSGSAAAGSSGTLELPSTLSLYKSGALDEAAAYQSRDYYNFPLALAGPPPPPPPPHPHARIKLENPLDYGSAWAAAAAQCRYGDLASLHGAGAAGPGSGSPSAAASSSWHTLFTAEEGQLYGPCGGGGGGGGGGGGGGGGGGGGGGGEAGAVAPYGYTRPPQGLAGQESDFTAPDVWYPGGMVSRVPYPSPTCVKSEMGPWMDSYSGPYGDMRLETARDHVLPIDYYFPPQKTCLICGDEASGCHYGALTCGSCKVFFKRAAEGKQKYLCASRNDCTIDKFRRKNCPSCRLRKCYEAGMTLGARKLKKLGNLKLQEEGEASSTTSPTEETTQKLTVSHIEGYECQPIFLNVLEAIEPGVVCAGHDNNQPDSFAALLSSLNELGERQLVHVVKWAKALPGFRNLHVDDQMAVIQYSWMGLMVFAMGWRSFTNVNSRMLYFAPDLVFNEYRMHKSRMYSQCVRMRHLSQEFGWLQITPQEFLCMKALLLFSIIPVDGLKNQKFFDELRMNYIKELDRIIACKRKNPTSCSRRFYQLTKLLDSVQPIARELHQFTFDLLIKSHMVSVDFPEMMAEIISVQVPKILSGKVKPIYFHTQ

CC(C)c1cc(-c2n[nH]c(=O)n2-c2ccc(CN3CCN(C(=O)CCCNC(=O)c4ccc(C(=O)N[C@H]5CC[C@H](Oc6ccc(C#N)c(Cl)c6)CC5)cc4)CC3)cc2)c(O)cc1O
IC50 (CWR22R [1]): > 1000 nM | IC50 (LNCaP [2]): > 1000 nM

N#Cc1ccc(O[C@H]2CC[C@H](NC(=O)c3cccnn3)CC2)cc1Cl
Activity (LNCaP [3]): inactive | Activity (LNCaP [4]): inactive | IC50 (LNCaP [2]): 336 nM | Activity (CWR22R [5]): inactive | Activity (CWR22R [6]): inactive

CC(C)c1cc(-c2n[nH]c(=O)n2-c2ccc(CN3CCN(CC4CCN(c5ncc(C(=O)N[C@H]6CC[C@H](Oc7ccc(C#N)c(Cl)c7)CC6)cn5)CC4)CC3)cc2)c(O)cc1O
Activity (CWR22R [7]): Active | IC50 (CWR22R [1]): 34.3 nM | IC50 (LNCaP [2]): 73.8 nM

CC(C)c1cc(-c2n[nH]c(=O)n2-c2ccc(CN3CCN(C(=O)CCCCCNC(=O)c4ccc(C(=O)N[C@H]5CC[C@H](Oc6ccc(C#N)c(Cl)c6)CC5)cc4)CC3)cc2)c(O)cc1O
IC50 (CWR22R [1]): > 1000 nM | IC50 (LNCaP [2]): > 1000 nM

CC(C)c1cc(-c2n[nH]c(=O)n2-c2ccc(CN3CCN(CC4CCN(C(=O)c5ccc(C(=O)N[C@H]6CC[C@H](Oc7ccc(C#N)c(Cl)c7)CC6)cc5)CC4)CC3)cc2)c(O)cc1O
IC50 (CWR22R [1]): 65.5 nM | IC50 (LNCaP [2]): 112 nM

CC(C)c1cc(-c2n[nH]c(=O)n2-c2ccc(CN3CCN(C)CC3)cc2)c(O)cc1O
Drug uptake [8]: Not Active | Activity [9]: Tde | Drug uptake [10]: Not Active | Drug uptake [11]: Not Active | Activity [12]: Dose-Dependent Effect | IC50 (LNCaP [2]): 107 nM | Activity (CWR22R [13]): inactive | Activity (CWR22R [14]): inactive

CC(C)c1cc(-c2n[nH]c(=O)n2-c2ccc(CN3CCN(CC4CCN(c5ncc(C(=O)N[C@H]6C(C)(C)[C@H](Oc7ccc(C#N)c(Cl)c7)C6(C)C)cn5)CC4)CC3)cc2)c(O)cc1O
IC50 (CWR22R [1]): 212 nM | IC50 (LNCaP [2]): 188 nM

CC(C)c1cc(-c2n[nH]c(=O)n2-c2ccc(CN3CCN(C(=O)CCCCCN4/C(=C/C=C/C=C/C5=[N+](C)c6ccccc6C5(C)C)C(C)(C)c5ccccc54)CC3)cc2)c(O)cc1O
Drug uptake [15]: Not Active | Drug uptake [16]: Not Active | Drug uptake [17]: Not Active | Drug uptake [18]: Not Active | Drug uptake [19]: Active | Drug uptake [20]: Not Active | Drug uptake [21]: Active

CC(C)c1cc(-c2n[nH]c(=O)n2-c2ccc(CN3CCN(CC4CCN(c5ccc(C(=O)N[C@H]6CC[C@H](Oc7ccc(C#N)c(Cl)c7)CC6)cn5)CC4)CC3)cc2)c(O)cc1O
IC50 (CWR22R [1]): 45.9 nM | IC50 (LNCaP [2]): 110 nM

N#Cc1ccc(O[C@H]2CC[C@H](NC(=O)c3cncnc3)CC2)cc1Cl
Activity (LNCaP [3]): inactive | Activity (LNCaP [4]): inactive | IC50 (LNCaP [2]): 153 nM | Activity (CWR22R [5]): inactive | Activity (CWR22R [6]): inactive

COc1cc(OC)c(C(C)C)cc1-c1nn(C)c(=O)n1-c1ccc(CN2CCN(CC3CCN(CC4CCN(c5ncc(C(=O)N[C@H]6CC[C@H](Oc7ccc(C#N)c(Cl)c7)CC6)cn5)CC4)CC3)CC2)cc1
Activity [9]: Tde | IC50 (CWR22R [1]): > 1000 nM | IC50 (LNCaP [2]): > 1000 nM | Activity (CWR22R [22]): Active

CC(C)c1cc(-c2n[nH]c(=O)n2-c2ccc(CN3CCN(C(=O)CCCCCCNC(=O)c4ccc(C(=O)N[C@H]5CC[C@H](Oc6ccc(C#N)c(Cl)c6)CC5)cc4)CC3)cc2)c(O)cc1O
IC50 (CWR22R [1]): > 1000 nM | IC50 (LNCaP [2]): > 1000 nM

CC(C)c1cc(-c2n[nH]c(=O)n2-c2ccc(CN3CCN(CC4CCN(c5ncc(C(=O)N[C@H]6CC[C@H](Oc7ccc(C#N)c(C(F)(F)F)c7)CC6)cn5)CC4)CC3)cc2)c(O)cc1O
IC50 (CWR22R [1]): 89.9 nM | IC50 (LNCaP [2]): 267 nM
